Reference: patent publication US20260055061A1, “HALOPHTHALIMIDE COMPOUNDS AND METHODS OF USE AGAINST TBI, INFLAMMATORY DISORDER, AUTOIMMUNE DISORDER, NEURODEGENERATIVE DISEASE OR VIRAL INFECTION” (The United States of America, as represented by the …, priority 2022, published 2026)
Entries after “also recorded” stand apart in the source; their conditions may differ.

Tests used:
RAW 264.7 cells = assay: Cell viability of drug treated RAW 264.7 cells (CellTiter 96 AQueous One, MTS)
Description: Assessments of drug anti-TNF-α and nitric oxide generation in RAW 264.7 cells: RAW 264.7 cells were purchased from ATCC Manassas, VA, USA). The cells were grown in DMEM media (Invitrogen, DMEM, high glucose, GlutaMAX Supplement, pyruvate, #10569-010) supplemented with 10% FBS (Invitrogen, Fetal Bovine Serum, qualified, heat inactivated, #16140-071) with penicillin and streptomycin (Invitrogen, Penicillin-Streptomycin (10,000 U/mL), #15140-122) and were maintained at 37 C and 5% CO2. The cells were grown to 75%-85% confluence on 10 cm plates (corning-Fal-con, #353003) following the protocol described by ATTC. to assess for drug effects on LPS-induced markers of inflammation, namely TNF-α protein and nitrite ion levels (NO2, a stable end-product of nitric oxide metabolism) cells were seeded into 24 well (VWR, #10062-896) at a density of 200×10^3 cells per well. On each plate there was one blank well where no cells were added yet culture media in the well was treated similarly to wells with cells (n=1). The blank well media was used for background subtraction for various downstream assays. twenty-four hours after seeding the plate the seeding media was replaced with fresh media. Two hours after this the cells were exposed to a range of concentrations of drug test-compound(s) dissolved in 100% tissue culture grade dimethyl sjloxide (DMSO, SIGMA #D2650). Drug stocks were prepared in a 200 times more concentrated stock in DMSO. The final concentration of DMSO added to the cells was 0.5%. The effects of each concentration of drug were assessed in 4 wells per concentration in the 24 well plate (n=3 #-4). On each plate one set of wells were assigned as drug-vehicle control (i.e. DMSO), one test compound was assessed on one 24 well plate. […] One hour after the drugs were added the cells were challenged with lipopolysaccharide (LPS, SIGMA, serotype 055:B5) at a final concentration of 60 ng/ml. Twenty to twenty-four hours after the cells were challenged with LPS the culture media was collected and utilized for the measurement of markers of inflammation.
Cellular viability assessment of drug treated RAW 264.7 cells: RAW 264.7 cell viability was determined by use of the CellTiter 96 AQueous One Solution Cell Proliferation Assay (Promega, Madison, WI). Changes in cellular health status were determined by use of indirect measures related to the formation of a colored tetrazolium dye product that can be measured spectrophotometrically at 490 nm. An increase in absorbance at 490 nm is indicative of an increase in numbers of healthy cells; similarly a reduction in absorbance is indicative of a reduction of healthy cells. After the culture media was harvested for use in TNF-α and NO2— ion assays, the media was replaced with 0.5 mL of fresh media plus 100 μL of the cell viability reaction mixture. After a 20-30 min incubation at 37° C. with 5% CO2 the absorbance at 490 nm was obtained using an infinite M200 PRO plate reader (TECAN, USA).
Statistical analyses for RAW-derived assays: Data are expressed as a percentage change from the DMSO-vehicle control measurements. Measurements are expressed as mean±standard errors, where the n number represents the number of wells in a 24 well plate. Due to the presence of one blank control well on each plate, for some drug concentrations the n number is 3 # and not 4. Statistical comparisons were undertaken by use of a One-Way ANOVA with appropriate Bonferroni corrections for multiple comparisons, as required (GraphPad InStat Version 3.05). P values of <0.05 are considered to be of statistical significance.
RAW 264.7 cell culture: RAW 264.7 mouse cells were purchased from ATCC (Manassas, VA, USA) and grown in DMEM media supplemented with 10% FCS, penicillin 100 U/ml and streptomycin 100 μg/ml (ThermoFisher Scientific, Asheville, NC, USA). The cells were maintained at 37° C. and 5% CO2.

SALL4 = SALL4 (Homo sapiens (Human), UniProt Q9UJQ4); assay: SALL4 expression in Tera-1 cells (Western blot); assay type: cell-based; settings: Tera-1 cells, 0.1 μM and 1 μM
Description: (§1) For Western blot analysis, total proteins were extracted using RIPA buffer (ThermoFisher Scientific, Waltham, MA) containing Halt Protease Inhibitor Cocktail (ThermoFisher Scientific). […] After incubation at 4° C. overnight, the following HRP conjugated secondary antibodies were used: (i) goat anti-rabbit IgG (ThermoFisher Scientific) for ikaros and aiolos, and (ii) goat anti-mouse IgG (ThermoFisher Scientific) for SALL4 and GAPDH. […] Antigen-antibody complexes were detected using enhanced chemiluminescence (Thermo, iBright CL1500).
Specifically, MM1.S cells were obtained from ATCC (Manassas, VA, USA), grown in RPMI media supplemented with 10% FBS, penicillin 100 U/mL, and streptomycin […], and maintained at 37° C. and 5% CO2.
as §1, with “MA, USA)” for “MA)”, “Scientific). Thereafter, the proteins were separated by gel electrophoresis and then transferred to polyvinylidene difluoride (PVDF) membranes (ThermoFisher Scientific), as described previously.” for “Scientific).”, “HRP-conjugated” for “HRP conjugated”, “Ikaros” for “ikaros”, “Aiolos,” for “aiolos,”, “(ThermoFisher Scientific,” for “(Thermo,”

CCI-induced TBI mice = assay: CCI mouse model of TBI: brain lesion and lateral ventricle size (Giemsa); assay type: in vivo
Description: In vivo model of TBI: Mice were anesthetized with 2.5% tribromoethanol (Avertin: 250 mg/kg; Sigma, St. Louis, MO, USA) and placed in a stereotaxic frame (Kopf Instruments, Tujunga, CA, USA). A 4 mm craniotomy was performed using sterile procedures; the craniotomy point was selected midway between the lambda and bregma sutures and laterally midway between the central suture and the temporalis muscle. The skull fragment was then carefully removed without disruption of the underlying dura. Prior to injury induction, the tip of the impactor was angled and kept perpendicular to the exposed cortical surface. The mouse CCI instrument consisted of an electromagnetic impactor, Impact One (Leica Biosystems Inc., Buffalo Grove, IL, USA) that allows independent alteration of injury severity by controlling contact velocity and the level of cortical deformation. In these experiments, the contact velocity was set at 5.0 m/sec, the dwell time was set at 0.2 s and the deformation depth was set at 2 mm to produce a moderate TBI. The injury site was allowed to dry prior to suturing the wound. During surgery and recovery, the body temperature of the animals was maintained at 36-37° C. by using a heating pad. […] Mice were randomized following CCI to treatment with either of two doses of TFBP (16.25 mg/kg and 32.5 mg/kg, i.p.) or saline, and were dosed at 1 and 24 hr after the injury.
Tissue processing: Two weeks after injury, mice were deeply anesthetized with isoflurane and perfused transcardially with 30 ml phosphate buffered saline (PBS). After removal, the brain was post-fixed with 4% PFA overnight then transferred to a 30% sucrose solution in PBS. […]
Quantification of brain lesion and lateral ventricle size in TBI animals: One set of brain sections 2-weeks post-CCI were mounted on slides. […] Brain image regions were quantified using ImageJ 1.52q software (National Institutes of Health, Bethesda, MD). […] There were 9 brain sections from each mouse counted by blinded observers, with regions starting from bregma at 0.86 to −1.46 mm.
In Vivo Model of TBI: TBI studies were conducted in 8-week-old male C57/BL6 mice (25-30 g; n=20), Jackson Laboratory, Bar Harbor, Maine USA. Mice were randomly assigned to four groups prior surgery, CMC+Sham, CMC+TBI, compound 30 (Low dose (LD), 14.78 mg/kg, prepared in 1% CMC in PBS)+TBI, compound 30 (High dose (HD), 29.57 mg/kg)+TBI, and evaluated the effects of compound 30 on TBI. Mice were assessed for gait function and motor coordination, balance function. Animals were subsequently evaluated for cellular changes using histological and immunohistochemistry staining. […]

[1] = biological target: cereblon (CRBN/DDB1-CUL4A-Rbx1 complex) / BRD3 (Homo sapiens (Human), UniProt Q96SW2); assay: Cereblon/BRD3 binding assay (AlphaScreen / FRET); settings: for IC50: Example 5, FIG. 20A; for cereblon binding (in words): cereblon/BRD3 binding FRET assay
Chain of cereblon (CRBN/DDB1-CUL4A-Rbx1 complex) / BRD3 (Q96SW2 whole entry): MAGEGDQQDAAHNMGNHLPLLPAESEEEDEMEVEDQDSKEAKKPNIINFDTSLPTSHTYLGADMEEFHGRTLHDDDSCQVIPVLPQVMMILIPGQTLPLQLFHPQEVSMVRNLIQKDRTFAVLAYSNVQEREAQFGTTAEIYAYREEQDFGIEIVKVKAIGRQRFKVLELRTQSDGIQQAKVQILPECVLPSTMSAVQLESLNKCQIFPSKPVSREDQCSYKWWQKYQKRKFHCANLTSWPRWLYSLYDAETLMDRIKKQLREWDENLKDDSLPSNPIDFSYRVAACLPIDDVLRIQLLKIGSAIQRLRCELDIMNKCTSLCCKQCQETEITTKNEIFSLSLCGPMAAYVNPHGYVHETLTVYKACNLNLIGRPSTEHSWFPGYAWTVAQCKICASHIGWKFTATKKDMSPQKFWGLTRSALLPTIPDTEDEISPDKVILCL
Chain of cereblon (CRBN/DDB1-CUL4A-Rbx1 complex) / BRD3 (Q16531 whole entry partner): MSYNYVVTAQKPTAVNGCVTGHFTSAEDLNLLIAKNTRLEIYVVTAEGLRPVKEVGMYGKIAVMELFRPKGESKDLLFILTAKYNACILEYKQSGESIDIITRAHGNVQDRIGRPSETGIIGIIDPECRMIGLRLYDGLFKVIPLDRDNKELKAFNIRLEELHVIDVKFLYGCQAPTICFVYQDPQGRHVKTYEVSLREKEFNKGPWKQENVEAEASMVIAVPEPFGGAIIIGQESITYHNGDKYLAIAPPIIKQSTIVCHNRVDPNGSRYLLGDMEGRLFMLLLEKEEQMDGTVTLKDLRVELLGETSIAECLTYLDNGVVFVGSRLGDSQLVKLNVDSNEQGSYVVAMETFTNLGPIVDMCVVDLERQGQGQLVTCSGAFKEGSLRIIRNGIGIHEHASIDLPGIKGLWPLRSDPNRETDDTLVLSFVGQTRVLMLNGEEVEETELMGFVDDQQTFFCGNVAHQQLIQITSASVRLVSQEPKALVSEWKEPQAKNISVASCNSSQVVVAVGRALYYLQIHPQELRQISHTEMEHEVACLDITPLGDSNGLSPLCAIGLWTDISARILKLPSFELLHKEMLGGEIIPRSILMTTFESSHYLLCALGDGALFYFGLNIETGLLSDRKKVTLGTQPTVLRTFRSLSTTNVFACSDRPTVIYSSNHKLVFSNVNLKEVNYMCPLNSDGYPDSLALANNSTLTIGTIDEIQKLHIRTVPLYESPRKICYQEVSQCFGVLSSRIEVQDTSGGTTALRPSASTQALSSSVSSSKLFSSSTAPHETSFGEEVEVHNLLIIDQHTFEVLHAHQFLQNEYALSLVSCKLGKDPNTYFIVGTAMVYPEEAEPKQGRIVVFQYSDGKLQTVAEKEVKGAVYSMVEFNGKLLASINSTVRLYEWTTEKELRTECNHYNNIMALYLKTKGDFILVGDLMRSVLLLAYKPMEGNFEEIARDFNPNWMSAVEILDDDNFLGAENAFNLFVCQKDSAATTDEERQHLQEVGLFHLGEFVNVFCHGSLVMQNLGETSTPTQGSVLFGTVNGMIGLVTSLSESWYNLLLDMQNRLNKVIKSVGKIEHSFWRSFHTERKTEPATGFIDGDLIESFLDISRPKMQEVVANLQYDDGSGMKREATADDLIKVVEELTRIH
Chain of cereblon (CRBN/DDB1-CUL4A-Rbx1 complex) / BRD3 (Q13619 whole entry partner): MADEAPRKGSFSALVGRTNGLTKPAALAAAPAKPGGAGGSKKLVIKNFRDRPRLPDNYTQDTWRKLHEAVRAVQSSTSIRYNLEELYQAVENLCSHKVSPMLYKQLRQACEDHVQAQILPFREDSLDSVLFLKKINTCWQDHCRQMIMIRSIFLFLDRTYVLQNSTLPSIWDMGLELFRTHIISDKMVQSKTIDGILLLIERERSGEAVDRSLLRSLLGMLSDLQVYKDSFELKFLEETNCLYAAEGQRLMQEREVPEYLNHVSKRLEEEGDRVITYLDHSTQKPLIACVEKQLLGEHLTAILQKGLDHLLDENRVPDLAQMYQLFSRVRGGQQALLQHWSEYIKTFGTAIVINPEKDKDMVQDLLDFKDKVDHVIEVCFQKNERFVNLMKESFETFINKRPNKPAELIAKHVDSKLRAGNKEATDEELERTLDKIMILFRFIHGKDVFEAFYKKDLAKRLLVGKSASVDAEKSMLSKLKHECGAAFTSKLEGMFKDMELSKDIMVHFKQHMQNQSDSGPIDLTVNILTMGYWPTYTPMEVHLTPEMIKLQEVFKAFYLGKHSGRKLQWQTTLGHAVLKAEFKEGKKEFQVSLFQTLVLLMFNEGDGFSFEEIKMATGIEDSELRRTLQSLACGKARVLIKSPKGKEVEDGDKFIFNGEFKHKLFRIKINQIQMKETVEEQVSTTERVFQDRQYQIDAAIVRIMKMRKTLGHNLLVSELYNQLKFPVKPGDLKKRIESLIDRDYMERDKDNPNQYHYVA
Chain of cereblon (CRBN/DDB1-CUL4A-Rbx1 complex) / BRD3 (P62877 whole entry partner): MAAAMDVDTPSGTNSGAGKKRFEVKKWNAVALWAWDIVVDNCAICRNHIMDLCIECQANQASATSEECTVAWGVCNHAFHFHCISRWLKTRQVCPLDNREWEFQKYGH
Description: After 30 min of incubation with shaking at room temperature, AlphaLISA anti-FLAG Acceptor and Alpha Glutathione Donor beads (PerkinElmer) were sequentially added and then incubated for 1 hr at room temperature for each of the added chemicals. Alpha counts were thereafter read on a Synergy Neo2 (BioTek) for the analysis. Relative activity or inhibition was calculated as the highest value, which was set to 100%, and the lowest value was set to 0% after subtraction of the “blank value” from all readings.
After 30 min of incubation with shaking at room temperature, AlphaLISA anti-FLAG Acceptor and Alpha Glutathione Donor beads (PerkinElmer) were sequentially added and then incubated for 1 h at room temperature for each of the added chemicals. Alpha counts were thereafter read on a Synergy Neo2 (BioTek) for the analysis. The relative activity of the alpha signal was calculated after subtraction of the “blank value” from all readings, and the value of the vehicle group was then set as 100%.

| Structure (SMILES) | cell viability (RAW 264.7 cells; 1 μM, RAW 264.7 cells) | Cell Viability % Δ (RAW 264.7 cells; 1 μM, RAW 264.7 cells, percentage of vehicle control value, mean ± S.E.M., n = 3) | cell viability (in words) (RAW 264.7 cells; 100-1000 nM, vs LPS+Vehicle) | SALL4 expression levels (SALL4) | SALL4 expression levels (SALL4; listed as TFBP) | lateral ventricle size (CCI-induced TBI mice; both doses, 2 weeks after TBI) | loss of cortical tissue (lesion volume) (CCI-induced TBI mice; higher dose 32.5 mg/kg, 2 weeks after TBI) | loss of cortical tissue (lesion volume) (CCI-induced TBI mice; lower dose 16.25 mg/kg, 2 weeks after TBI) | IC50 [1] | cereblon binding (in words) [1] | SALL4 expression levels (SALL4; listed as TFNBP) | cellular viability (RAW 264.7 cells; 0.6-60 μM, LPS 60 ng/mL, 24 h) | lesion size (CCI-induced TBI mice; low dose 14.78 mg/kg, 2 weeks post-TBI, vs CMC) |
| --- | --- | --- | --- | --- | --- | --- | --- | --- | --- | --- | --- | --- | --- |
| CC1(C)[C@@H]2CC[C@@]1(C)[C@@H](N1C(=O)c3c(F)c(F)c(F)c(F)c3C1=O)C2 [Compound 14, 4,5,6,7-Tetrafluoro-2-((1R,2S,4R)-1,7,7-trimethylbicyclo[2.2.1]heptan-2-yl) isoindoline-1,3-dione] | ≥ 94% | 95 ± 4% | not significantly affected; also recorded: without impact on cell viability | did not statistically affect | did not lower the expression of neosubstrate SALL4 | did not reach statistical significance | failed to reach statistical significance | reduce loss of cortical tissue | 53.4 µM | did not bind cereblon |  |  |  |
| O=C1c2c(F)c(F)c(F)c(F)c2C(=O)N1C1CC2CCC1C2 (stereo not drawn) [Compound 16, 2-Endo-(bicyclo[2.2.1]heptan-2-yl)-4,5,6,7-tetrafluoroisoindoline-1,3-dione] |  |  |  | did not statistically affect |  |  |  |  | > 100 µM | did not bind cereblon | did not lower the expression of neosubstrate SALL4 |  |  |
| Nc1ccc(F)c2c1C(=S)N(C1CCC(=S)NC1=O)C2=O (stereo not shown) [Compound 30, 4-amino-7-fluoro-2-(2-oxo-6-thioxopiperidin-3-yl)-3-thioxoisoindolin-1-one] |  |  |  |  |  |  |  |  |  |  |  | > 90% | significant reduction of the lesion size |
